In US20190175685A1, “METHODS OF TREATING AND PREVENTING CANCER TREATMENT SIDE EFFECTS” (FILAMENT BIOSOLUTIONS INC., priority 2016, published 2019):
Entries after “also recorded” stand apart in the source; their conditions may differ. Residues, ends and D or L forms follow the SMILES beside them.

What was measured:
[1] = test system: small intestinal crypt survival and regeneration; assay: Intestinal crypt survival after irradiation in a murine model; format: in vivo, mice; conditions: for number of surviving and regenerating crypts, pre-irradiation treatment versus treatment concurrent with radiation: oral twice daily 0.2 ml, day -5 to +4 compared with day 0 to +4, 13 Gy on day 0, scored day 4 post-irradiation
Source text: In this example irradiation was used to target the proliferating clonogenic cells of the crypt. Following irradiation, crypt cells can become impaired and undergo apoptosis, or programmed cell death, resulting in a reduction in the number of viable crypts, which could regenerate and heal the intestinal tissue. The more crypts that are lost the greater the level of ulceration, which can manifest as the symptoms of mucositis. […] This model of crypt cell survival is therefore often used as a surrogate for manifestation of mucositis, e.g., oral mucositis.
In this example the efficacy of orally administered Alanyl-Glutamine (Ala-Gln) and Glutamine (Gln) on small intestinal crypt survival and regeneration and maintenance of villus structure was assessed in response to radiation insult in a murine model. The crypt cells were measured at 4 days post high-dose irradiation, a time at which crypt cells affected by radiation have died and surviving cells begin to regenerate. The level of crypt cell survival at this time directly correlates to severity of ulceration and ultimately animal survival.
Ala-Gln and Gin were administered orally twice daily at a volume of 0.2 ml either pre- and post-irradiation (day −5 to day 4), or post-irradiation alone (day 0 to day 4). The animals were given doses of Ala-Gln at a concentration of 39.65 mg/ml and Gln at a concentration of 26.75 mg/ml, which contain molar equivalent doses of Gin. Vehicle control animals were administered 0.2 ml of water orally twice daily.
Animals were irradiated on day 0 at 3 pm. Irradiation was performed using an XStrahl RS320 X-ray set, operated at 300 Kv, 10 Ma. Radiation was delivered at a dose rate of 0.832 Gy/min using a single uniform dose of 13 Gy radiation. A dosimetry device was placed in the irradiation chamber to confirm the dose received. […]
For each animal in the study, ten intestinal circumferences were analyzed, providing a total of 80 circumferences per treatment group available for analysis. The number of surviving and regenerating crypts per circumference was scored and the average per group was determined.

[2] = Plasma glutamine levels after a single oral gavage dose in rats; format: in vivo, male Sprague Dawley rats; conditions: for change in plasma glutamine levels versus pre-dose: high, medium and low dose, 3 to 540 minutes after dose, UHPLC/MS/MS
Description: Alanyl-Glutamine and glutamine were administered as a single dose by oral gavage, with deionized water as the vehicle, into male Sprague Dawley rats. The oral gavage of Alanyl-Glutamine and glutamine was administered to different groups at three distinct levels, a high, medium and low dose. Each dose level contained molar equivalent amounts of Glutamine (doses selected to correspond to relevant human doses) so that the resulting changes in plasma Glutamine levels could be directly compared in vivo. The concurrent control group received the vehicle (deionized water) by oral gavage. The dose volume was 20 ml/kg for the oral gavage. Each treatment group consisted of three males. For pharmacokinetic evaluation, blood samples were collected via a jugular vein cannula (JVC) from 3 animals/group/time point prior to dose administration and at 3, 10, 20, 40, 60, 90, 180, 360, and 540 minutes after dose administration. Each sample was analyzed to determine plasma glutamine concentration using a qualified ultra-high performance liquid chromatography mass spectrometry method (UHPLC/MS/MS), developed expressly for the determination of glutamine levels in rat plasma. A subtractive analysis of the plasma levels was then performed, in which the data from each individual animal was subtracted from their pre-dose plasma glutamine levels. The resulting data-points were then averaged for each dosing group and graphed, and represent the change in plasma glutamine after administration of the two different compositions.

Row | SMILES | number of surviving and regenerating crypts, pre-irradiation treatment versus treatment concurrent with radiation [1] | change in plasma glutamine levels versus pre-dose [2] | average number of crypts, Ala-Gln versus Gln ([1]; groups treated pre-irradiation (-5 to +4), molar equivalent doses of Gln, 13 Gy, scored day 4) | plasma glutamine levels, Alanyl-Glutamine versus glutamine at equivalent molar doses ([2]; each of three dose levels (high, middle, low))
1 | NC(=O)CC[C@H](N)C(=O)O [glutamine, reference compound] | significantly more crypts | increase in glutamine levels in the plasma at all dose levels |  | 
2 | C[C@H](N)C(=O)N[C@@H](CCC(N)=O)C(=O)O [Alanyl-Glutamine, L-alanyl-L-glutamine] (H-Ala-Gln-OH) | significantly more crypts | increase in glutamine levels in the plasma at all dose levels | higher average number of crypts | higher plasma glutamine levels at each dose; also recorded: increased more
